# Assay results taken from patent US20240180868A1, “PHARMACEUTICAL COMPOSITION FOR PREVENTION OR TREATMENT OF VIRUS INFECTION, THE PHARMACEUTICAL COMPOSITION COMPRISING ROTTLERIN AS ACTIVE INGREDIENT” (QVET, priority 2021, published 2024).
# Columns and labels:
# PRRSV = PRRSV protein expression, fluorescent immunostaining of nucleocapsids; type: cell-based; details: 10 μM; 48 hours after inoculation
# Method: To evaluate the inhibitory effect of rottlerin or rottlerin liposomes against PRRSV protein expression, the cells were treated with 5 μM rottlerin liposomes and 10 μM rottlerin, and 48 hours after inoculation, fluorescent immunostaining was performed using primary antibody for PRRSV nucleocapsids and Alexa 488 secondary antibody.
# PRRSV FL12 = experiment: PRRSV animal model, 4-week-old pigs, intranasal spray; type: in vivo; details: 1 mg intranasal
# Method: Validity assessment for target animals were performed using 4-week-old pigs. A total of 15 pigs were used, and randomly distributed into a positive PRRSV FL12 administration group, a rottlerin liposome 100 μg administration group (R-L 100 μg), a rottlerin liposome 1 mg administration group (R-L 1 mg), and a rottlerin raw material 1 mg administration group (R 1 mg), wherein four animals were used for each group (three animals were used for the rottlerin liposome 100 μg administration group).
# The pigs of each group were inoculated with 10^5 TCID50/ml FL12, and after the inoculation, 2 ml of each therapeutic agent was intranasally administered by spray.
# Sera were separated from the pigs on days 1, 3, 7, 14, and 19, and the pigs were euthanized and necropsied on day 19 of inoculation. The lung tissue of each pig was collected and lesions were evaluated, thereby calculating lung lesion scores. […]
# Microscopic lung lesions were measured from 0 to 4 according to the degree of interstitial pneumonia as follows: (0, no lesions; 1, mild lesions or less than half being lesions; 2, common lesions or half being lesions; 3, moderately spread lesions or more than half being lesions; 4, severe lesions or full lesions). […]
smiles,measurement,setting,value
CC(=O)c1c(O)c(C)c(O)c(Cc2c(O)c3c(c(C(=O)/C=C/c4ccccc4)c2O)OC(C)(C)C=C3)c1O [rottlerin],PRRSV virus proteins detected by fluorescent immunostaining,PRRSV,virus proteins were not detected
same,clinical symptom score,PRRSV FL12; scored daily 0 to 6,"significant decrease in clinical symptom score on days 8, 16, 17, and 18"
same,"area under curve (AUC) of viremia, qRT-PCR","PRRSV FL12; vs FL12 group, p≤0.05",significantly lower
